Legend:
Type in all cases: in vivo, Wistar rats
VEGF protein = test: Bleomycin pulmonary fibrosis rat model: VEGF protein in lung tissue by ELISA; settings: n = 6, x ± s
Experimental: (§1) Rats were numbered according to their body weight and divided into groups according to their body weight by random arrangement table method, and divided into small molecule compound treatment group (tail vein injection of PCSK9 small molecule compound inhibitor, 3 mg/kg·d), siPcsk9 treatment group (Tail vein injection of PCSK9 small interfering RNA, 3 mg/kg·d), monoclonal antibody treatment group (tail vein injection of PCSK9 monoclonal antibody, 3 mg/kg·d), peptide treatment group (tail vein injection of PCSK9 polypeptide inhibitor, 3 mg/kg·d), model group (injection of physiological saline into tail vein, 3 mg/kg·d), and blank control group (injection of physiological saline into tail vein, 3 mg/kg·d), 12 animals in each group, half male and half female. Rats in each group were anesthetized by intraperitoneal injection of 2% sodium pentobarbital ([…]), fixed on the operating table, and injected into the neck trachea. The control group was injected with normal saline (1.25 ml/kg), and the model group and each treatment group were injected with 5 U/mL bleomycin solution (5 mg/kg). […]
(§2) Peripheral venous blood was collected from the tail vein of animals in each group after modeling and 14 days after treatment, and the levels of superoxide dismutase (SOD) and catalase (CAT) in peripheral blood were detected. […]

VEGF-mRNA = test: Bleomycin pulmonary fibrosis rat model: VEGF-mRNA in lung tissue by reverse transcription PCR; settings: n = 6, x ± s
Experimental: as §1, §2

MMP-9 = test: Bleomycin pulmonary fibrosis rat model: MMP-9 expression in lung tissue; settings: after 14 days of treatment, tail vein 3 mg/kg·d, n = 6, x ± s
Experimental: as §1, §2

catalase (CAT) = test: Bleomycin pulmonary fibrosis rat model: CAT in peripheral blood; settings: n = 6, x ± s
Experimental: as §1, §2

MMP-2 = test: Bleomycin pulmonary fibrosis rat model: MMP-2 expression in lung tissue; settings: after 14 days of treatment, tail vein 3 mg/kg·d, n = 6, x ± s
Experimental: as §1, §2

TIMP-1 = test: Bleomycin pulmonary fibrosis rat model: TIMP-1 expression in lung tissue; settings: after 14 days of treatment, tail vein 3 mg/kg·d, n = 6, x ± s
Experimental: as §1, §2

[1] = system: superoxide dismutase (SOD); test: Bleomycin pulmonary fibrosis rat model: SOD in peripheral blood; settings: n = 6, x ± s
Experimental: as §1, §2

[2] = after modeling (before the 14 days of treatment)
[3] = tail vein 3 mg/kg·d once a day for 14 days

COc1ccc(CCC(=O)N(c2nccc3ccccc23)[C@@H]2CCCNC2)cc1 [Compound group 1, R-IMPP]
VEGF protein, 14 days after modeling (VEGF protein; [2]): 38.47 ± 3.23 pg/mL
VEGF protein, 14 days after treatment (VEGF protein; [3]): 57.61 ± 3.86 pg/mL
VEGF-mRNA, 14 days after modeling (VEGF-mRNA; [2]): 0.53 ± 0.16
VEGF-mRNA, 14 days after treatment (VEGF-mRNA; [3]): 0.85 ± 0.16
MMP-9 (MMP-9): 3.43 ± 0.34
CAT, 14 days after modeling (catalase (CAT); [2]): 9.43 ± 2.31 kU/g
CAT, 14 days after treatment (catalase (CAT); [3]): 14.45 ± 1.51 kU/g
MMP-2 (MMP-2): 2.67 ± 0.32
TIMP-1 (TIMP-1): 8.56 ± 0.58
SOD, 14 days after modeling [1, 2]: 171.45 ± 13.92 U/ml
SOD, 14 days after treatment [1, 3]: 218.56 ± 14.36 U/ml

Source: patent US20230346773A1, “USE OF PCSK9 INHIBITOR IN PREPARATION OF PRODUCT FOR TREATING MULTIPLE DISEASES” (priority 2020, published 2023)
